Experimental findings from patent publication US11926580B2, “Hydropersulfide precursors” (THE JOHNS HOPKINS UNIVERSITY, priority 2018, dated 2024) are described below.

Data set [1] is described as follows: UPLC-MS analysis of RSSH trapping with N-ethylmaleimide. Conditions: UPLC-MS. Type of data set: physicochemical. How it is done: FIGS. 2a and 2b provide graphs of (a) UPLC-MS chromatograms of RSSH generation from 4d (200 μM) in the presence of NEM (4 mM) incubated in pH 7.4 ammonium bicarbonate (100 mM) with DTPA (100 μM) at 37° C. A peak at 3.7 min corresponding to N-ethylmaleamic acid (NEMA), derived from NEM hydrolysis, was observed under these conditions (see SI); (b) MS spectrum (ESI+ mode) of the product eluting at 5.06 min corresponding to 5a with m/z 349.0885 (expected m/z 349.0886).
FIG. 5 provides a graph of UPLC-MS chromatograms of RSSH generation from compound 1 (1 mM) in the presence of NEM (5 mM) incubated in pH 7.4 ammonium bicarbonate buffer containing DTPA (100 μM) for 30 min at 37° C. The asterisk indicates the methyl ester analogue of dialkyl trisulfide 2, which was also formed due to the presence of minor amount of methyl ester analogue of 1. A peak at 3.7 min corresponding to N-ethylmaleamic acid (NEMA), derived from NEM hydrolysis, was observed under these conditions.
RSSH trapping in the presence of N-ethylmaleimide (NEM) was carried out with a Waters Acquity/Xevo-G2 UPLC-MS system equipped with an ACQUITY UPLC BEH C18 column (2.1 mm×50 mm, 1.7 μm). Typically, RSSH precursor (1 eq) was incubated with NEM (5 to 20 eq) in freshly prepared pH 7 4 ammonium bicarbonate buffer (100 mM) containing DTPA (100 μM) at 37° C. An aliquot of the reaction mixture (300 μL) was withdrawn at specified time points, quenched with 0.25% formic acid (300 μL), and filtered through a 0.22 μm filter. The samples were then loaded into vials in an autosampler maintained at 4° C. and analyzed using UPLC-MS as follows: Mobile phase: 0-1 min 90% water+0% ACN+10% formic acid (0.1%); 1-7.5 min gradient up to 10% water+80% ACN+10% formic acid (0.1%); 7.5-8.4 min 10% water+80% ACN+10% formic acid (0.1%); 8.4-8.5 min gradient up to 90% water+0% ACN+10% formic acid (0.1%), 8.5-10 min 90% water+0% ACN+10% formic acid (0.1%). Flow rate=0.3 mL min^−1. The mass signals for products of RSSH trapping with NEM were obtained via deconvolution using MassLynx 4.1 software.
To a solution of NEM (5 mM) in pH 7 4 ammonium bicarbonate (100 mM) with DTPA (100 μM) in a 20-mL scintillation vial, hydropersulfide precursor 1 (1 mM, total reaction volume 3 mL) was added. The resulting mixture was incubated at 37° C. for 30 min. An aliquot of 300 μL reaction mixture was withdrawn, quenched with 300 μL of formic acid (0.25%) and analyzed using UPLC-MS.

Data set [2] is described as follows: Kinetics of RSSH generation by 1H NMR with NEM trapping. Type of data set: physicochemical. Conditions: pH 7.4 buffer with 20% MeOD, pH 7.4; read-out: half-life of precursor.
For data set [3], the system named is cardiomyocyte H9c2 cells. Description: Cytotoxicity / cell viability assay with Cell Counting Kit-8. Type of data set: cell-based. Conditions: 50 μM, 24 h, CCK-8. How it is done: (§1) FIGS. 6a and 6b provide graphs of (a) the cell viability of cardiomyocyte H9c2 cells following incubation of the RSSH precursor 4d (50 μM) and phenylcynamide (200 μM) for 24 h; and (b) the cytoprotective effects of the RSSH precursor 4d observed following pretreatment of H9c2 cells with either 4d (50 μM) or phenylcynamide (200 μM) for 2 h, followed by hydrogen peroxide (200 μM) treatment for 2 h. Quantification of cell viability was carried out using Cell Counting Kit-8 (CCK-8). Results are expressed as the mean±SEM (n=6).
The cytotoxicity and impact on cell viability of the hydropersulfide (RSSH) precursor 4d have been examined using the cardiomyocyte H9C2 cell line and Cell Counting Kit-8 (CCK-8). A cell viability assay reveled that 4d was not cytotoxic at 50 μM ([…]).
On the technique in general: Tetrazolium assays rely on reduction of a dye to a coloured formazan, in cell work by metabolically active cells.

Data set [4] concerns cardiomyocyte H9c2 cells. The data set can be described thus: Cytoprotection against hydrogen peroxide-induced cytotoxicity. The data set is classed as cell-based. The note with it: pretreatment 2 h (4d 50 μM; phenyl cyanamide 200 μM), then H2O2 200 μM 2 h, CCK-8. The protocol:
as §1
Since hydropersulfides are reported to mitigate oxidative stress, the ability of RSSH precursor 4d to protect cardiomyocyte H9c2 cells from cytotoxicity induced by hydrogen peroxide (H2O2) was tested.

One may read the half-life as the time in which the quantity being followed falls by half. As to `CC(=O)NC(C(=O)O)C(C)(C)SSC(=N)Nc1ccccc1.Cl` (centres unmarked) [Precursor 4d, ((1-acetamido-1-carboxy-2-methylpropan-2-yl)disulfaneyl)(phenylamino)methaniminium chloride], the “RSSH generation (RSS-NEM adduct formation)” value in data set [1] (NEM trap, pH 7.4 buffer, 37° C.) was “clean conversion of 4d to the RSS-NEM adduct 5a”. For the same compound, the “phenyl cyanamide yield from precursor decomposition” value in data set [1] (NEM, pH 7.4, 37° C.) amounted to 94%. For the same compound, the half-life in data set [2] is 4.3 min. Also, in the data set with cardiomyocyte H9c2 cells [3], the “cytotoxicity (cell viability)” value is on record as “not cytotoxic”. For the same compound, the “cytoprotection from H2O2-induced cytotoxicity” value in the data set with cardiomyocyte H9c2 cells [4] is recorded as “significant cytoprotection”.
